Tests used:
[1] = target: T1, αvβ3 receptor (purified from human placenta) (Homo sapiens, UniProt P05106+P06756); assay: competition radioligand binding assay, 125I-echistatin to αvβ3 receptor; settings: αvβ3, inhibition of specific 125I-echistatin binding
T1 construct: αvβ3 receptor (purified from human placenta); from tissue; host or cells: human placenta
Protocol: The following assay procedure, which is a competition radioligand binding assay, was carried out to determine the activity of the foregoing compounds as αvβ3 antagonists. The competitive assay procedure described in Kumar, et. al., "Biochemical Characterization Of The Binding Of Echistatin To Integrin αvβ3 Receptor", Journal Of Pharmacology And Experimental Therapeutics, Vol. 283, No. 2, pp. 843-853 (1997) was employed. Thus, binding of ^125I-echistatin (radiolabeled by the chloramine-T method to a specific activity of 2000 Ci/mmol (Amersham, Chicago, Il.)) to αvβ3 receptor (purified from human placenta), both prepared as described in Kumar, et al., was competed by the compounds prepared in the foregoing examples. Purified αvβ3 receptor was coated onto Microlite-2 plates at a concentration of 50 ng/well. ^125I-echistatin was added to the wells to a final concentration of 0.05 nM in binding buffer (50 µl/well) in the presence of the competing test compound. The competing test compounds were employed at serially diluted concentrations ranging from 1 pM to 100 nM. After a 3 hour incubation at room temperature, the wells were washed, and radioactivity, reflecting binding by ^125 I-echistatin to αvβ3 receptors, was determined with Top Count (Packard). Each data point is an average of values from triplicate wells.
Specific binding of ^125I-echistatin was calculated as the difference between the amount of ^125I-echistatin bound in the absence (total binding) and the amount of ^125I-echistatin bound in the presence of a 200-fold molar excess of unlabeled echistatin (nonspecific binding). The efficacy of the test compounds for inhibiting specific binding of ^125I-echistatin to αvβ3 receptors was determined by plotting a graph of specific binding (y-axis) as a function of test compound concentration (x-axis). The concentration of test compound required to inhibit 50% of the specific binding (IC50) was determined from the plot. The IC50 may be directly converted mathematically to Ki, which is a measure of the receptor binding affinity of the compounds under the defined assay conditions.

[2] = target: purified αllbβ3 receptor (Homo sapiens, UniProt P05106+P08514); assay: similar competitive binding assay with 125I-echistatin on αllbβ3 receptor, used for the specificity index; settings: specificity index IC50 αllbβ3/ IC50 αvβ3; for Specificity α11bβ3 / αvβ3: Table 13
Protocol: To measure the relative affinity of the test compounds for αvβ3 receptors versus affinity for αllbβ3 receptors, similar competitive assays were carried out using purified αllbβ3 receptor and ^125I-echistatin (iodinated using the lactoperoxidase method). The specificity index, which is a measure of the relative binding affinity for αvβ3, versus αllbβ3, may be determined by dividing the IC50 value for αllbβ3 by the IC50 value for αvβ3.

SMILES	IC50 ([1]; Table 10)	SPECIFICITY αIIbβ3 / αvβ3 ([2]; Table 10)	other results
O=C(O)CNC(=O)N(Cc1ccc(C(=O)NC[C@H](NC(=O)OCc2ccccc2)C(=O)O)cc1)Cc1nc2ccccc2[nH]1 [Example 5-96, N^3-[4-[(Benzimidazol-2-yl)methyl] [[(carboxymethyl)amino]carbonyl]aminomethylbenzoyl]-N^2-Cbz-L-2,3-diaminopropionic acid]	–	–	IC50 ([1]; Table 16): 3.4 nM; Specificity αllbβ3 / αvβ3 ([2]; Table 16): 528
COc1ccc(OC(=O)N(Cc2ccc(C(=O)NC[C@H](NC(=O)OCc3ccccc3)C(=O)O)cc2)Cc2nc3ccccc3[nH]2)cc1 [Example 5-21]	4.4 nM	41	–
CCCCOC(=O)N[C@@H](CNC(=O)c1ccc(CN(Cc2nc3ccccc3[nH]2)C(=O)NC(C)(C)C)cc1)C(=O)O [Example 5-85]	–	–	IC50 ([1]; Table 16): 1.8 nM; Specificity αllbβ3 / αvβ3 ([2]; Table 16): 1223
CC(C)NC(=O)N(Cc1ccc(C(=O)NC[C@H](NC(=O)OCc2ccccc2)C(=O)O)cc1)Cc1nc2cc(Cl)ccc2[nH]1 [Example 5-95]	–	–	IC50 ([1]; Table 16): 1.7 nM; Specificity αllbβ3 / αvβ3 ([2]; Table 16): 775
O=C(N[C@@H](CNC(=O)c1ccc(CN(Cc2nc3ccccc3[nH]2)C(=O)C2CCCCC2)cc1)C(=O)O)OCc1ccccc1 [Example 5-15]	4.3 nM	95	–
CCOC(=O)[C@H](CC(C)C)NC(=O)N(Cc1ccc(C(=O)NC[C@H](NC(=O)OCc2ccccc2)C(=O)O)cc1)Cc1nc2ccccc2[nH]1 [Example 5-53]	3.8 nM	483	–
CCOC(=O)CCC(=O)N(Cc1ccc(C(=O)NC[C@H](NC(=O)OCc2ccccc2)C(=O)O)cc1)Cc1nc2ccccc2[nH]1 [Example 5-17]	4.6 nM	76	–
CCOC(=O)c1ccc(NC(=O)N(Cc2ccc(C(=O)NC[C@H](NC(=O)OCc3ccccc3)C(=O)O)cc2)Cc2nc3ccccc3[nH]2)cc1 [Example 5-47]	2.2 nM	1252	–
O=C(N[C@@H](CNC(=O)c1ccc(CN(Cc2nc3ccccc3[nH]2)C(=O)Nc2ccc(-c3ccccc3)cc2)cc1)C(=O)O)OCc1ccccc1 [Example 5-38]	13.6 nM	49	–
CCCCOC(=O)N[C@@H](CNC(=O)c1ccc(CN(Cc2nc3ccccc3[nH]2)C(=O)Nc2ccccc2)cc1)C(=O)O [Example 5-83]	–	–	IC50 ([1]; Table 16): 1.8 nM; Specificity αllbβ3 / αvβ3 ([2]; Table 16): 1689
O=C(N[C@@H](CNC(=O)c1ccc(CN(Cc2nc3ccccc3[nH]2)C(=O)Nc2ccc(Cl)cc2)cc1)C(=O)O)OCc1ccccc1 [Example 5-35]	8.1 nM	240	–
CCNC(=O)N(Cc1ccc(C(=O)NC[C@H](NC(=O)OCc2ccccc2)C(=O)O)cc1)Cc1nc2ccccc2[nH]1 [Example 5-43]	2.2 nM	585	–
CCOC(=O)CCNC(=O)N(Cc1ccc(C(=O)NC[C@H](NC(=O)OCc2ccccc2)C(=O)O)cc1)Cc1nc2ccccc2[nH]1 [Example 5-54]	2 nM	413	–
CCOC(=O)[C@H](Cc1ccccc1)NC(=O)N(Cc1ccc(C(=O)NC[C@H](NC(=O)OCc2ccccc2)C(=O)O)cc1)Cc1nc2ccccc2[nH]1 [Example 5-52]	4 nM	448	–
O=C(O)CC(NC(=O)c1ccc(CNCc2nc3ccccc3[nH]2)cc1)c1ccccc1 (stereo not drawn) [Example 5-65]	–	–	IC50 ([1]; Table 13): 9230 nM; Specificity α11bβ3 / αvβ3 [2]: 0.4
O=C(O)CC(NC(=O)c1ccc(CN(Cc2nc3ccccc3[nH]2)C(=O)CCC2CCCC2)cc1)c1ccccc1 (stereo not drawn) [Example 5-69]	–	–	IC50 ([1]; Table 13): 10500 nM; Specificity α11bβ3 / αvβ3 [2]: 0.4
COc1ccc(NC(=S)N(Cc2ccc(C(=O)NC[C@H](NC(=O)OCc3ccccc3)C(=O)O)cc2)Cc2nc3ccccc3[nH]2)cc1 [Example 5-46]	2.7 nM	1065	–

SMILES	IC50 ([1]; Table 10)	SPECIFICITY αIIbβ3 / αvβ3 ([2]; Table 10)	other results
CC(=O)N(Cc1ccc(C(=O)NC(CC(=O)O)c2ccccc2)cc1)Cc1nc2ccccc2[nH]1 (stereo not drawn) [Example 5-66]	–	–	IC50 ([1]; Table 13): 9470 nM; Specificity α11bβ3 / αvβ3 [2]: 0.4
O=C(NC(CNC(=O)c1ccc(CN(CCc2nc3ccccc3[nH]2)C(=O)CCc2ccccc2)cc1)C(=O)O)OCc1ccccc1 (stereo not drawn) [Example 5-73]	–	–	IC50 ([1]; Table 14): 170 nM; Specificity αIIβ3 / αvβ3 ([2]; Table 14): 0.7
CC(NC(=O)N(Cc1ccc(C(=O)NC[C@H](NC(=O)OCc2ccccc2)C(=O)O)cc1)Cc1nc2ccccc2[nH]1)c1cccc2ccccc12 (stereo partly drawn) [Example 5-36]	11.7 nM	129	–
CC(c1nc2ccccc2[nH]1)N(Cc1ccc(C(=O)NC[C@H](NC(=O)OCc2ccccc2)C(=O)O)cc1)C(=O)CCC1CCCC1 (stereo partly drawn) [Example 5-79]	–	–	IC50 ([1]; Table 15): 33 nM; SPECIFICITY αIIbβ3 / αvβ3 ([2]; Table 15): 19.0
O=C(N[C@H](CNC(=O)c1ccc(CN(Cc2nc3ccccc3[nH]2)C(=O)CCc2ccccc2)cc1)C(=O)O)OCc1ccccc1 [Example 5-59]	–	–	IC50 ([1]; Table 11): 129 nM; Specificity αllbβ3 / αvβ3 ([2]; Table 11): 65
O=C(N[C@@H](CNC(=O)c1ccc(CN(Cc2nc3ccccc3[nH]2)C(=S)NC2CCCCC2)cc1)C(=O)O)OCc1ccccc1 [Example 5-55]	2.5 nM	620	–
CC(C)(C)NC(=O)N(Cc1ccc(C(=O)NC[C@H](NC(=O)OCc2ccccc2)C(=O)O)cc1)Cc1nc2ccccc2[nH]1 [Example 5-34]	2.3 nM	421	–
CC(C)NC(=O)N(Cc1ccc(C(=O)NC[C@H](NC(=O)OCc2ccccc2)C(=O)O)cc1)Cc1nc2ccccc2n1C [Example 5-93]	–	–	IC50 ([1]; Table 16): 6.7 nM; Specificity αllbβ3 / αvβ3 ([2]; Table 16): 124
CC(=O)N(Cc1ccc(C(=O)NC[C@H](NC(=O)OC(C)(C)C)C(=O)O)cc1)Cc1nc2ccccc2[nH]1 [Example 5-61]	–	–	IC50 ([1]; Table 12): 17 nM; Specificity αllbβ3 / αvβ3 ([2]; Table 12): 324
O=C(N[C@H](CNC(=O)c1ccc(CNCc2nc3ccccc3[nH]2)cc1)C(=O)O)OCc1ccccc1 [Example 5-57]	–	–	IC50 ([1]; Table 11): 1290 nM; Specificity αllbβ3 / αvβ3 ([2]; Table 11): 1.43
Cn1c(CN(Cc2ccc(C(=O)NC[C@H](NC(=O)OCc3ccccc3)C(=O)O)cc2)C(=O)NC2CCCCC2)nc2ccccc21 [Example 5-92]	–	–	IC50 ([1]; Table 16): 7.6 nM; Specificity αllbβ3 / αvβ3 ([2]; Table 16): 174
O=C(N[C@@H](CNC(=O)c1ccc(CN(Cc2nc3ccccc3[nH]2)C(=O)C2CC2c2ccccc2)cc1)C(=O)O)OCc1ccccc1 (stereo partly drawn) [Example 5-22]	6.4 nM	26	–
O=C(N[C@@H](CNC(=O)c1ccc(CN(Cc2nc3ccccc3[nH]2)C(=O)Nc2ccccc2)cc1)C(=O)O)OCc1ccccc1 [Example 5-27]	1.56 nM	481	–
CSCC(=O)N(Cc1ccc(C(=O)NC[C@H](NC(=O)OCc2ccccc2)C(=O)O)cc1)Cc1nc2ccccc2[nH]1 [Example 5-23]	5.5 nM	22	–
CCCCOC(=O)N[C@@H](CNC(=O)c1ccc(CN(Cc2nc3ccccc3[nH]2)C(=O)N[C@H](C(=O)OCC)C(C)C)cc1)C(=O)O [Example 5-90]	–	–	IC50 ([1]; Table 16): 2.6 nM; Specificity αllbβ3 / αvβ3 ([2]; Table 16): 1697
COCC(=O)N(Cc1ccc(C(=O)NC[C@H](NS(=O)(=O)c2ccccc2)C(=O)O)cc1)Cc1nc2ccccc2[nH]1 [Example 5-80]	–	–	IC50 ([1]; Table 16): 4.4 nM; Specificity αllbβ3 / αvβ3 ([2]; Table 16): 11
